Experimental data as given in patent US12180226B2, “Spirotricycle RIPK1 inhibitors and methods of uses thereof” (Merck Sharp & Dohme LLC, priority 2021, dated 2024).
Counter-ions that a name gives are not always drawn.

target: RIPK1 (recombinant GST-RIPK1 kinase domain, residues 1-327) (Homo sapiens (Human), UniProt Q13546); experiment: RIPK1-ADP-Glo Enzymatic Assay; assay type: biochemical; conditions: ADP-Glo; 25 nM GST-RIPK1, 300 μM ATP; assay lower limit ~25 nM; read-out: RIPK1 V0 Ec50
How it was run: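 Enzyme from baculovirus-infected Sf21 cells, 25 nM final, was pre-incubated 30 min at ambient temperature with compound (ten-point, 1:3 dilution from 100000 nM, 1% DMSO), then reacted 150 min with 300 μM ATP and 3 μM dephosphorylated MBP. ADP was read by luminescence; EC50 from four-parameter fit.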

RIPK1 (recombinant GST-RIPK1 kinase domain, residues 1-327), sequence (Q13546 1-327): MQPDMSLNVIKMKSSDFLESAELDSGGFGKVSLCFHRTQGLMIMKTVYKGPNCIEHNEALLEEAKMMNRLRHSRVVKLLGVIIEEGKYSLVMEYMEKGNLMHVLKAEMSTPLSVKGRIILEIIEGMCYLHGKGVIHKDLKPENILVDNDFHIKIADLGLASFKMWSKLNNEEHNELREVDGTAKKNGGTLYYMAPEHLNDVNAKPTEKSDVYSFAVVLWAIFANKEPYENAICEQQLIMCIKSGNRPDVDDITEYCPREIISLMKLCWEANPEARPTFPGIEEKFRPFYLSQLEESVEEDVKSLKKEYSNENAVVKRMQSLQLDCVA

EC50	Structure (SMILES)
< 0.025 µM	O=C1N2C(CCC2c2cc(F)cc(F)c2)SC12CCN(c1ccnc3c(F)cnn13)CC2 (stereo not shown) [Example 4.110, 5′-(3,5-difluorophenyl)-1-(3-fluoropyrazolo[1,5-a]pyrimidin-7-yl)tetrahydro-3′H-spiro[piperidine-4,2′-pyrrolo[2,1-b]thiazol]-3′-one]
0.0824 µM	O=C(c1cc(C2CC2)on1)N1CCC2(CC1)O[C@@H]1CC[C@@H](c3cc(F)cc(F)c3)N1C2=O [Example 6.25, (5′S,7a′R)-1-(5-cyclo-propyl-1,2-oxazole-3-carbonyl)-5′-(3,5-difluorophenyl)tetra-hydro-3′H-spiro[piperi-dine-4,2′-pyrrolo[2,1-b][1,3]oxazol]-3′-one]
0.0378 µM	Cc1nc(N2CCC3(CC2)O[C@@H]2CC[C@@H](c4ccccc4)N2C3=O)ncc1-c1cnoc1 [Example 21.9, (5′S,7a′R)-1-[4-methyl-5-(1,2-oxazol-4-yl)pyrimidin-2-yl]-5′-phenyltetrahydro-3′H-spiro[piperidine-4,2′-pyrrolo[2,1-b][1,3]oxazol]-3′-one]
< 0.025 µM	O=C(c1cc(F)ccc1F)N1CCC2(CC1)O[C@@H]1CC[C@@H](c3ccccc3)N1C2=O [Example 1.11, (5′S,7a′R)-1-(2,5-difluorobenzene-1-carbonyl)-5′-phenyltetrahydro-3′H-spiro[piperidine-4,2′-pyrrolo[2,1-b] [1,3]oxazol]-3′-one]
< 0.025 µM	O=C1N2[C@@H](CC[C@H]2c2cc(F)cc(F)c2)OC12CCN(c1ncnc3ccnn13)CC2 [Example 4.128, (5′S,7a′R)-5′-(3,5-difluorophenyl)-1-(pyrazolo[1,5-a] [1,3,5]triazin-4-yl)tetrahydro-3′H-spiro[piperidine-4,2′-pyrrolo[2,1-b] [1,3]oxazol]-3′-one]
< 0.025 µM	N#Cc1ccc(N2CCC3(CC2)O[C@@H]2CC[C@@H](c4cc(F)cc(F)c4)N2C3=O)c(F)c1 [Example 4.24, 4-[(5′S,7a′R)-5′-(3,5-difluorophenyl)-3′-oxotetrahydro-1H,3′H-spiro[piperidine-4,2′-pyrrolo[2,1-b] [1,3]oxazol]-1-yl]-3-fluorobenzonitrile]
< 0.025 µM	Cc1cc(N2CCC3(CC2)O[C@@H]2CC[C@@H](c4ccccc4)N2C3=O)cc(C#N)n1 [Example 4.16, 6-methyl-4-[(5′S,7a′R)-3′-oxo-5′-phenyltetrahydro-1H,3′H-spiro[piperidine-4,2′-pyrrolo[2,1-b] [1,3]oxazol]-1-yl]pyridine-2-carbonitrile]
< 0.025 µM	O=C(c1ccoc1)N1CCC2(CC1)O[C@@H]1CC[C@@H](c3cccc(F)c3)N1C2=O [Example 6.125, (5′S,7a′R)-5′-(3-fluoro-phenyl)-1-(furan-3-carbonyl)tetrahydro-3′H-spiro[piperidine-4,2′-pyrrolo[2,1-b] [1,3]oxazol]-3′-one]
< 0.025 µM	O=C(c1ccccc1F)N1CCC2(CC1)O[C@@H]1CC[C@@H](c3ccccc3F)N1C2=O [Example 1.16, (5′S,7a′R)-1-(2-fluorobenzoyl)-5′-(2-fluorophenyl)tetrahydro-3′H-spiro[piperidine-4,2′-pyrrolo[2,1-b]oxazol]-3′-one]
0.55 µM	O=C(c1cc(C(F)(F)F)cnn1)N1CCC2(CC1)O[C@@H]1CC[C@@H](c3cc(F)cc(F)c3)N1C2=O [Example 6.34, (5′S,7a′R)-5′-(3,5-difluorophenyl)-1-[5-(trifluoromethyl)pyrid-azine-3-carbonyl] tetrahydro-3′H-spiro [piperidine-4,2′-pyrrolo[2,1-b][1,3]oxazol]-3′-one]
< 0.025 µM	O=C(c1cc(O)ccc1F)N1CCC2(CC1)O[C@@H]1CC[C@@H](c3cc(F)cc(F)c3)N1C2=O [Example 5.57, (5′S,7a′R)-5′-(3,5-difluoro-phenyl)-1-(2-fluoro-5-hydroxybenzoyl)tetra-hydro-3′H-spiro[piperidine-4,2′-pyrrolo[2,1-b]oxazol]-3'-one]
0.171 µM	CC(C)(C)NC(=O)c1nc(N2CCC3(CC2)O[C@@H]2CC[C@@H](c4cc(F)cc(F)c4)N2C3=O)ncc1F [Example 7.15, N-tert-butyl-2-[(5′S,7a′R)-5′-(3,5-difluorophenyl)-3′-oxotetrahydro-1H,3′H-spiro[piperidine-4,2′-pyrrolo[2,1-b][1,3]oxazol]-1-yl]-5-fluoropyrimidine-4-carboxamide]
0.509 µM	Cn1cc(C(=O)N2CCC3(CC2)O[C@@H]2CC[C@@H](c4cc(F)cc(F)c4)N2C3=O)cn1 [Example 5.53, (5′S,7a′R)-5′-(3,5-difluoro-phenyl)-1-(1-methyl-1H-pyrazole-4-carbonyl)tetra-hydro-3′H-spiro[piperidine-4,2′-pyrrolo[2,1-b]oxazol]-3′-one]
< 0.025 µM	O=C(c1ccoc1)N1CCC2(CC1)O[C@@H]1CC[C@@H](c3cc(F)cc(F)c3)N1C2=O [Example 5.36, (5′S,7a′R)-5′-(3,5-difluoro-phenyl)-1-(furan-3-carbon-yl)tetrahydro-3′H-spiro [piperidine-4,2′-pyrrolo-[2,1-b]oxazol]-3′-one]
< 0.025 µM	O=C(c1cccc(-c2ccccc2)n1)N1CCC2(CC1)O[C@@H]1CC[C@@H](c3cc(F)cc(F)c3)N1C2=O [Example 6.97, (5′S,7a′R)-5′-(3,5-difluorophenyl)-1-(6-phenylpyridine-2-carbonyl)tetrahydro-3′H-spiro[piperidine-4,2′-pyrrolo[2,1-b] [1,3]oxazol]-3′-one]
0.394 µM	COc1ccc(N2CCC3(CC2)O[C@@H]2CC[C@@H](c4ccccc4)N2C3=O)n2ncnc12 [Example 19.8, (5′S,7a′R)-1-(8-methoxy[1,2,4]triazolo [1,5-a]pyridin-5-yl)-5′-phenyltetrahydro-3′H-spiro[piperidine-4,2′-pyrrolo[2,1-b][1,3]oxazol]-3′-one]
0.524 µM	O=C(c1cc2n(n1)CCCC2)N1CCC2(CC1)O[C@@H]1CC[C@@H](c3cc(F)cc(F)c3)N1C2=O [Example 5.75, (5′S,7a′R)-5′-(3,5-difluoro-phenyl)-1-(4,5,6,7-tetra-hydropyrazolo[1,5-a]-pyridine-2-carbonyl)tetra-hydro-3′H-spiro[piperi-dine-4,2′-pyrrolo[2,1-b]oxazol]-3′-one]
0.0376 µM	O=C1N2[C@@H](CC[C@H]2c2ccccc2)OC12CN(c1cccc3ncnn13)C2 [Example 13.22, (5′S,7a′R)-1-([1,2,4]triazolo[1,5-a]pyridin-5-yl)-5′-phenyltetrahydro-3′H-spiro[azetidine-3,2′-pyrrolo[2,1-b]oxazol]-3′-one, TFA salt]
< 0.025 µM	N#Cc1cccc(N2CCC3(CC2)O[C@@H]2CC[C@@H](c4ccccc4)N2C3=O)n1 [Example 4.29, 6-[(5′S,7a′R)-3′-oxo-5′-phenyltetrahydro-1H,3′H-spiro[piperidine-4,2′-pyrrolo[2,1-b] [1,3]oxazol]-1-yl]pyridine-2-carbonitrile]
0.664 µM	O=C1N2[C@@H](CC[C@H]2c2cc(F)cc(F)c2)OC12CCN(c1cncc3nccn13)CC2 [Example 13.8, (5′S,7a′R)-5′-(3,5-difluorophenyl)-1-(imidazo[1,2-a]pyrazin-5-yl)tetrahydro-3′H-spiro[piperidine-4,2′-pyrrolo[2,1-b]oxazol]-3′-one, TFA salt]
0.114 µM	COc1cc(N2CCC3(CC2)O[C@@H]2CC[C@@H](c4cc(F)cc(F)c4)N2C3=O)nc(C)c1C#N [Example 4.69, 6-[(5′S,7a′R)-5′-(3,5-difluorophenyl)-3′-oxotetrahydro-1H,3′H-spiro[piperidine-4,2′-pyrrolo[2,1-b] [1,3]oxazol]-1-yl]-4-methoxy-2-methylpyridine-3-carbonitrile]
0.0291 µM	O=C(c1ccccc1)N1CCC2(CC1)CC1COC(c3cc(F)cc(F)c3)N1C2=O (stereo not shown) [Example 6.163, 1-(benzenecarbonyl)-3′-(3,5-difluoro-phenyl)dihydro-1′H,3′H,5′H-spiro [piperidine-4,6′-pyrrolo[1,2-c][1,3]oxazol]-5′-one]
0.0453 µM	O=C(c1cc2ccccc2o1)N1CCC2(CC1)O[C@@H]1CC[C@@H](c3cc(F)cc(F)c3)N1C2=O [Example 5.69]
< 0.025 µM	O=C1N2[C@@H](CC[C@H]2c2cc(F)cc(F)c2)OC12CCN(c1ccc(Cl)c3ncnn13)CC2 [Example 15.4, (5′S,7a′R)-1-(8-chloro-[1,2,4]triazolo[1,5-a]pyridin-5-yl)-5′-(3,5-difluorophenyl)tetrahydro-3′H-spiro[piperidine-4,2′-pyrrolo[2,1-b]oxazol]-3′-one, TFA salt]
< 0.025 µM	N#Cc1ccnc(N2CCC3(CC2)O[C@@H]2CC[C@@H](c4cc(F)cc(F)c4)N2C3=O)c1 [Example 4.8, 2-[(5′S,7a′R)-5′-(3,5-difluorophenyl)-3′-oxotetrahydro-1H,3′H-spiro[piperidine-4,2′-pyrrolo[2,1-b] [1,3]oxazol]-1-yl]pyridine-4-carbonitrile]
0.0633 µM	CCOC(=O)c1nc(N2CCC3(CC2)O[C@@H]2CC[C@@H](c4cc(F)cc(F)c4)N2C3=O)ncc1F [Example 4.205, ethyl 2-[(5′S,7a′R)-5′-(3,5-difluorophenyl)-3′-oxotetrahydro-1H,3′H-spiro[piperidine-4,2′-pyrrolo[2,1-b] [1,3]oxazol]-1-yl]-5-fluoropyrimidine-4-carboxylate]
< 0.025 µM	C#Cc1cccc(C(=O)N2CCC3(CC2)O[C@@H]2CC[C@@H](c4cc(F)cc(F)c4)N2C3=O)c1 [Example 5.25, (5′S,7a′R)-5′-(3,5-difluoro-phenyl)-1-(3-ethynyl-benzoyl)tetrahydro-3′H-spiro[piperidine-4,2′-pyrrolo[2,1-b]oxazol]-3′-one]
0.0781 µM	O=C(c1csnn1)N1CCC2(CC1)O[C@@H]1CC[C@@H](c3cc(F)cc(F)c3)N1C2=O [Example 5.49, (5′S,7a′R)-5′-(3,5-difluoro-phenyl)-1-(1,2,3-thiadi-azole-4-carbonyl)tetra-hydro-3′H-spiro[piperidine-4,2′-pyrrolo[2,1-b]oxazol]-3′-one]
